Read-outs that look alike come from different tables or passages of the source.
Columns and labels:
[1] = biological target: T1, human serotonin transporters (Homo sapiens, UniProt P31645); assay: Serotonin Transporter Binding Assay; conditions: HEK-hSERT cell membranes, 1 nM [3H]-citalopram, Cheng and Prusoff
T1 construct: expressed in transfected cells; host or cells: HEK-293 (HEK-hSERT), membrane homogenates
Method in brief: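 Displacement of 1 nM [^3H]-citalopram (1 hr, 25° C, Tris pH 7.4 with NaCl/KCl) from membranes of HEK-293 cells stably expressing human SERT, with bound ligand read after filtration. 10 μM fluoxetine defined non-specific binding. Ki values were derived via Cheng–Prusoff from IC50 displacement-curve midpoints.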

[2] = biological target: T2, recombinant human dopamine D2L receptors (Homo sapiens, UniProt P14416); assay: Dopamine Binding Assay; conditions: HEK-D2L cell membranes, 150 pM [3H]-spiperone, Cheng and Prusoff
T2 construct: expressed in transfected cells; host or cells: HEK-293 (HEK-D2L), membrane homogenates
T2 sequence (P14416 whole entry): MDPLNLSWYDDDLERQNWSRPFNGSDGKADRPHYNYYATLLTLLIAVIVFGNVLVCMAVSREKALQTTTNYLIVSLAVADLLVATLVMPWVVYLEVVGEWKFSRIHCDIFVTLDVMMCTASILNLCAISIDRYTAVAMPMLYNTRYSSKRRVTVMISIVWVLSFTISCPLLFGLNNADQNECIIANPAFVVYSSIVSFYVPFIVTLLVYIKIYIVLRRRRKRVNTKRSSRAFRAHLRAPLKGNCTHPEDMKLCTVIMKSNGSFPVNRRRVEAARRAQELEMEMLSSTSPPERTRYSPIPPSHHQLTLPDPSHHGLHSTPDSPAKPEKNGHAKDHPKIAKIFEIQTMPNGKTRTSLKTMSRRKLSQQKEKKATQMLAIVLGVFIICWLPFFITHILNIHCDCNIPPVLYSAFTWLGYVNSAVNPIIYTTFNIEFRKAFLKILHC
Method in brief: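 Competition binding on HEK-293 membranes stably expressing human D2L (~5 μg protein) with 150 pM [3H]-spiperone, 1.5 h at 22 °C in 50 mM Tris pH 7.4, 1 mM EDTA, 6 mM MgCl2. Filtration read-out; non-specific binding defined with 2 μM (+)butaclamol, Ki by Cheng-Prusoff.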

T1 sequence (P31645 whole entry): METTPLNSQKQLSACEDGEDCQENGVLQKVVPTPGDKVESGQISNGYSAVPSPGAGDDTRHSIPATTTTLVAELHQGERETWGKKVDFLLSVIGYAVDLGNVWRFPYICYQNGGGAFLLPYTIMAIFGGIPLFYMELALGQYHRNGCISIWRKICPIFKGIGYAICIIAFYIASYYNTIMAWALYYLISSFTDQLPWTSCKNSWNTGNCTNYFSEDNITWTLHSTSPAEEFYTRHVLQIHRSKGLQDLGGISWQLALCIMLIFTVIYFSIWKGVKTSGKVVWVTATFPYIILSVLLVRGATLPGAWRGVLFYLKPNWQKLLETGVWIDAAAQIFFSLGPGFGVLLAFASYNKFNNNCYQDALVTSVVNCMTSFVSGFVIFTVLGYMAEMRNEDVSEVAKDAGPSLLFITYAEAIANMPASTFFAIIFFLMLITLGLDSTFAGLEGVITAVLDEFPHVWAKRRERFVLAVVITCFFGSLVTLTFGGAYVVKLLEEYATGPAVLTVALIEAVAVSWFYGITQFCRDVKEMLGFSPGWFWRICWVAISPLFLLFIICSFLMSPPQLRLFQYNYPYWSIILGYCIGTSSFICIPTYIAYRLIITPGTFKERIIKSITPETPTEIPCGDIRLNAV

SMILES | Ki ([1]; read-out: SERT Ki) | Ki [2] | Ki ([1]; SERT Ki (nM))
CCN(CCCNC(=O)OC(C)C)C[C@@H]1C[C@H]1c1c[nH]c2ccc(F)cc12 (relative stereo) [Example 115, trans-1-[N,N-Ethyl-2-amino(isopropylcarbamoyl)propylaminomethyl]-2-[5-fluoroindol-3-yl]-cyclopropane] | 10 to 100 nM | 100 to 1000 nM | –
N#Cc1ccc2[nH]cc([C@@H]3C[C@H]3CCCN3CCCC3)c2c1 (relative stereo) [Example 179, Trans-2-[5-cyanoindol-3-yl]-1-(3-(1-pyrrolidino)propyl)cyclopropane] | 10 to 100 nM | 100 to 1000 nM | –
Fc1ccc2[nH]cc([C@@H]3C[C@@H]3CN3CCCC3)c2c1 (relative stereo) [Example 185, cis-1-(1-pyrrolidino)-2-[5-fluoroindol-3-yl]-cyclopropane] | – | > 1000 nM | 10 to 100 nM
CN(C)CC1CC1c1c[nH]c2ccc(C#N)cc12 (single isomer, unassigned) [Example 117, Cis-2-[5-Cyanoindol-3-yl]-1-(N,N-dimethylaminomethyl)cyclopropane] | – | > 1000 nM | 1 to 10 nM
CN(C)CC1CC1c1c[nH]c2ccc(F)cc12 (single isomer, unassigned) [Example 118, Cis-2-[5-Fluoroindol-3-yl]-1-(N,N-dimethylaminomethyl)cyclopropane] | – | > 1000 nM | 10 to 100 nM
CC([C@@H]1C[C@H]1c1c[nH]c2ccc(C#N)cc12)N(C)C (single isomer, unassigned) [Example 122A, trans-3-[2-(1-Dimethylamino-ethyl)-cyclopropyl]-1H-indole-5-carbonitrile] | – | > 1000 nM | < 1 nM
CC([C@@H]1C[C@H]1c1c[nH]c2ccc(C#N)cc12)N(C)C (single isomer, unassigned) [Example 122B, trans-3-[2-(1-Dimethylamino-ethyl)-cyclopropyl]-1H-indole-5-carbonitrile] | – | > 1000 nM | 1 to 10 nM
CN(C)CC1CC1c1c[nH]c2ccc(C#N)cc12 (single isomer, unassigned) [Example 129a, Cis-2-[5-Cyanoindol-3-yl]-1-(N,N-dimethylaminomethyl)cyclopropane] | – | > 1000 nM | 10 to 100 nM
CN(C)CC1CC1c1c[nH]c2ccc(C#N)cc12 (single isomer, unassigned) [Example 129b, Cis-2-[5-Cyanoindol-3-yl]-1-(N,N-dimethylaminomethyl)cyclopropane] | – | > 1000 nM | 1 to 10 nM
CN(C)CC1CC1c1c[nH]c2ccc(F)cc12 (single isomer, unassigned) [Example 130a, Cis-2-[5-Fluoroindol-3-yl]-1-(N,N-dimethylaminomethyl)cyclopropane] | – | > 1000 nM | 100 to 1000 nM
CN(C)CC1CC1c1c[nH]c2ccc(F)cc12 (single isomer, unassigned) [Example 130b, Cis-2-[5-Fluoroindol-3-yl]-1-(N,N-dimethylaminomethyl)cyclopropane] | – | > 1000 nM | 1 to 10 nM
CN(C)C[C@@H]1C[C@H]1Cc1c[nH]c2ccc(F)cc12 (single isomer, unassigned) [Example 148, (+)-[2-(5-Fluoro-1H-indol-3-ylmethyl)-cyclopropylmethyl]-dimethylamine] | 10 to 100 nM | 100 to 1000 nM | –
CN(C)C[C@@H]1C[C@H]1Cc1c[nH]c2ccc(F)cc12 (single isomer, unassigned) [Example 149, (−)-[2-(5-Fluoro-1H-indol-3-ylmethyl)-cyclopropylmethyl]-dimethylamine] | 1 to 10 nM | 100 to 1000 nM | –
CN(C)CC1CC1c1csc2ccccc12 (single isomer, unassigned; (+)) [Example 190B, (+)-(2-Benzo[b]thiophen-3-yl-cyclopropylmethyl)-dimethyl-amine] | 10 to 100 nM | > 1000 nM | –
CN(C)C[C@H]1C[C@@H]1c1c[nH]c2ccc(C#N)cc12 [Example 5, (1S,2S)-trans-2-[5-cyanoindol-3-yl]-1-(N,N-dimethylaminomethyl)-cyclopropane] | – | > 1000 nM | < 1 nM
N#Cc1ccc2[nH]cc(C3CC3CNCc3cccc(F)c3)c2c1 (stereo not drawn) [Example 12, trans-2-[5-Cyanoindol-3-yl]-1-[N-(3-fluorobenzyl)aminomethyl]-cyclopropane] | 1 to 10 nM | 100 to 1000 nM | –
N#Cc1ccc2[nH]cc(C3CC3CNCc3ccc(F)cc3)c2c1 (stereo not drawn) [Example 13, trans-2-[5-Cyanoindol-3-yl]-1-[N-(4-fluorobenzyl)aminomethyl]-cyclopropane] | 1 to 10 nM | 100 to 1000 nM | –
N#Cc1ccc2[nH]cc(C3CC3CNCc3ccccn3)c2c1 (stereo not drawn) [Example 14, trans-2-[5-Cyanoindol-3-yl]-1-[N-(2-pyridylmethyl)aminomethyl]-cyclopropane] | 10 to 100 nM | 100 to 1000 nM | –
N#Cc1ccc2[nH]cc(C3CC3CNCc3cccnc3)c2c1 (stereo not drawn) [Example 15, trans-2-[5-Cyanoindol-3-yl]-1-[N-(3-pyridyl)methylaminomethyl]-cyclopropane] | 10 to 100 nM | 100 to 1000 nM | –

SMILES | Ki ([1]; read-out: SERT Ki) | Ki [2] | Ki ([1]; SERT Ki (nM))
N#Cc1ccc2[nH]cc(C3CC3CNCc3ccncc3)c2c1 (stereo not drawn) [Example 16, trans-2-[5-Cyanoindol-3-yl]-1-[N-(4-pyridyl)methylaminomethyl]-cyclopropane] | 10 to 100 nM | 100 to 1000 nM | –
N#Cc1ccc2[nH]cc(C3CC3CNCCCc3ccccc3)c2c1 (stereo not drawn) [Example 21, trans-2-[5-Cyanoindol-3-yl]-1-[N-3-phenylpropylaminomethyl]-cyclopropane] | 1 to 10 nM | 10 to 100 nM | –
N#Cc1ccc2[nH]cc(C3CC3CNCCCc3cccnc3)c2c1 (stereo not drawn) [Example 22, trans-2-[5-Cyanoindol-3-yl]-1-[N-3-(3-pyridyl)propylaminomethyl]-cyclopropane] | 1 to 10 nM | 100 to 1000 nM | –
N#Cc1ccc2[nH]cc(C3CC3CNCCCn3ccnc3)c2c1 (stereo not drawn) [Example 24, trans-2-[5-Cyanoindol-3-yl]-1-[N-3-(1-imidazolyl)propylaminomethyl]-cyclopropane] | 10 to 100 nM | 100 to 1000 nM | –
N#Cc1ccc2[nH]cc(C3CC3CNCCc3cccs3)c2c1 (stereo not drawn) [Example 26, trans-2-[5-Cyanoindol-3-yl]-1-[N-2-(2-thiopheneyl)ethylaminomethyl]-cyclopropane] | 1 to 10 nM | 10 to 100 nM | –
N#Cc1ccc2[nH]cc(C3CC3CNCC3CC3)c2c1 (stereo not drawn) [Example 28, trans-2-[5-Cyanoindol-3-yl]-1-[N-cyclopropylmethylaminomethyl]-cyclopropane] | – | > 1000 nM | 10 to 100 nM
N#Cc1ccc2[nH]cc(C3CC3CNCC3CCCCC3)c2c1 (stereo not drawn) [Example 30, trans-2-[5-Cyanoindol-3-yl]-1-[N-cyclohexylmethylaminomethyl]-cyclopropane] | 1 to 10 nM | 10 to 100 nM | –
CC(C)CNCC1CC1c1c[nH]c2ccc(C#N)cc12 (stereo not drawn) [Example 31, trans-2-[5-Cyanoindol-3-yl]-1-[N-isobutylaminomethyl]-cyclopropane] | 10 to 100 nM | 10 to 100 nM | –
CC(C)CCNCC1CC1c1c[nH]c2ccc(C#N)cc12 (stereo not drawn) [Example 32, trans-2-[5-Cyanoindol-3-yl]-1-[N-3-methyl-butylaminomethyl]-cyclopropane] | 10 to 100 nM | 10 to 100 nM | –
CC1CCN(CC2CC2c2c[nH]c3ccc(C#N)cc23)CC1 (stereo not drawn) [Example 33, trans-2-[5-Cyanoindol-3-yl]-1-(4-methyl-piperidin-1-yl-methyl)-cyclopropane] | 10 to 100 nM | 100 to 1000 nM | –
N#Cc1ccc2[nH]cc(C3CC3CN3CCC(Cc4ccccc4)CC3)c2c1 (stereo not drawn) [Example 34, trans-1-(4-Benzyl-piperidin-1-ylmethyl)-2-[5-cyanoindol-3-yl]-cyclopropane] | 1 to 10 nM | 1 to 10 nM | –
N#Cc1ccc2[nH]cc(C3CC3CN3CCNCC3)c2c1 (stereo not drawn) [Example 35, trans-2-[5-Cyanoindol-3-yl]-1-(piperazin-1-yl-methyl)-cyclopropane] | – | > 1000 nM | 1 to 10 nM
N#Cc1ccc2[nH]cc(C3CC3CN3CCN(Cc4ccccc4)CC3)c2c1 (stereo not drawn) [Example 36, trans-1-[4-Benzyl-piperazin-1-yl-methyl]-2-[5-cyanoindol-3-yl]-cyclopropane] | 10 to 100 nM | 10 to 100 nM | –
CCCN(CCC)CC1CC1c1c[nH]c2ccc(C#N)cc12 (stereo not drawn) [Example 38, trans-2-[5-Cyanoindol-3-yl]-1-[N,N-dipropylaminomethyl]-cyclopropane] | – | > 1000 nM | 1 to 10 nM
N#Cc1ccc2[nH]cc(C3CC3CN3CCCC3)c2c1 (stereo not drawn) [Example 46, trans-2-[5-Cyanoindol-3-yl]-1-[pyrrolidin-1-yl-methyl]-cyclopropane] | 1 to 10 nM | 100 to 1000 nM | –
N#Cc1ccc2[nH]cc(C3CC3CN3CCCCC3)c2c1 (stereo not drawn) [Example 47, trans-2-[5-Cyanoindol-3-yl]-1-[piperidin-1-yl-methyl]-cyclopropane] | 10 to 100 nM | 100 to 1000 nM | –
COc1ccccc1CNCC1CC1c1c[nH]c2ccc(F)cc12 (stereo not drawn) [Example 50, trans-2-[5-Fluoroindol-3-yl]-1-[N-(2-methoxybenzyl)aminomethyl]-cyclopropane] | 1 to 10 nM | 10 to 100 nM | –
COc1cccc(CNCC2CC2c2c[nH]c3ccc(F)cc23)c1 (stereo not drawn) [Example 51, trans-2-[5-Fluoroindol-3-yl]-1-[N-(3-methoxybenzyl)aminomethyl]-cyclopropane] | 1 to 10 nM | 100 to 1000 nM | –

From patent US6822100B2 (Bristol-Myers Squibb Company, priority 2001, dated 2004)
